Measurements reported in BindingDB's records for doi:10.1021/jm00101a009 (University of Minnesota, 1992).

Experiment: The compound was evaluated for binding affinity against Opioid receptor delta 1 in guinea pig brain membrane using [3H]- DPDPE as ligand

Structure (SMILES)	Ki [nM]
Oc1ccc2c3c1O[C@H]1c4[nH]c5ccccc5c4C[C@H]4C(C2)NCC[C@]314	935
Oc1ccc2c3c1O[C@H]1c4[nH]c5ccccc5c4C[C@@]4(O)C(C2)NCC[C@]314	11
Oc1ccc2c3c1O[C@H]1c4[nH]c5ccccc5c4C[C@H]4C(C2)N(CCc2ccccc2)CC[C@]314 [22-phenethyl-14-oxa-11,22-diazaheptacyclo[13.9.1.01,13.02,21.04,12.05,10.019,25]pentacosa-4(12),5(10),6,8,15(25),16,18-heptaen-16-ol]	22
Oc1ccc2c3c1O[C@H]1c4[nH]c5ccccc5c4C[C@@]4(O)C(C2)N(CCc2ccccc2)CC[C@]314 [22-phenethyl-14-oxa-11,22-diazaheptacyclo[13.9.1.01,13.02,21.04,12.05,10.019,25]pentacosa-4(12),5(10),6,8,15(25),16,18-heptaene-2,16-diol]	11
